# Results published in ChEMBL document CHEMBL1201862, “PubChem BioAssay data set” (2004).
# The source made the active and inactive calls.
# Columns and labels:
# [1] = molecular target: DNA dC->dU-editing enzyme APOBEC-3A (Homo sapiens, UniProt P31941); test: SAR analysis of small molecule inhibitors of APOBEC3A DNA Deaminase via a fluorescence-based single-stranded DNA deaminase assay - Set 2.; format: functional; details: read-out: IC50_Mean
# [2] = molecular target: DNA dC->dU-editing enzyme APOBEC-3G (Homo sapiens, UniProt Q9HC16); test: SAR analysis of small molecule inhibitors of APOBEC3G DNA Deaminase via a fluorescence-based single-stranded DNA deaminase assay - Set 2.; format: functional; details: read-out: IC50_Mean
# DNA dC->dU-editing enzyme APOBEC-3G, sequence (Q9HC16 whole entry): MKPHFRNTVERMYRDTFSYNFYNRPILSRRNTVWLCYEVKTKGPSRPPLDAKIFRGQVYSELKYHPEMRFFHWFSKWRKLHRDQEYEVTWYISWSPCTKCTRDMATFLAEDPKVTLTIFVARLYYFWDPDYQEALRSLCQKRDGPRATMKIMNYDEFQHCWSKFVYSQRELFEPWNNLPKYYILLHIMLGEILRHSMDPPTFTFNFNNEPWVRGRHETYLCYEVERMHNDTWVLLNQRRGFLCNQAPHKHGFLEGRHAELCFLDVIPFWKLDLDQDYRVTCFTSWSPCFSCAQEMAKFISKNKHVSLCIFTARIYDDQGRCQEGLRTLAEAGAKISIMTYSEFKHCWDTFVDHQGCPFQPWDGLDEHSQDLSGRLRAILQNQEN
# DNA dC->dU-editing enzyme APOBEC-3A, sequence (P31941 whole entry): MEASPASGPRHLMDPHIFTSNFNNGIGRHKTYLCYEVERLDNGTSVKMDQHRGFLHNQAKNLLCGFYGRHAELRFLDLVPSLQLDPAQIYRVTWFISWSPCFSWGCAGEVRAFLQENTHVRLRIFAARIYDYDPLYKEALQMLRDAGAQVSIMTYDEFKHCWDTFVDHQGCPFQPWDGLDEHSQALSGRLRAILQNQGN
compound,measurement,setting,value
O=C(NCc1ccccc1)c1cc2ncc(Br)cn2n1,IC50,[1],> 99 µM (inactive)
same,IC50,[2],> 99 µM (inactive)
